Structures can show the parent of a compound that is named as a salt.

This experiment has as its target T1, human P2X7 receptor (Homo sapiens, UniProt Q99572).
T1 construct: expressed in transfected cells
T1 sequence (Q99572 1-595): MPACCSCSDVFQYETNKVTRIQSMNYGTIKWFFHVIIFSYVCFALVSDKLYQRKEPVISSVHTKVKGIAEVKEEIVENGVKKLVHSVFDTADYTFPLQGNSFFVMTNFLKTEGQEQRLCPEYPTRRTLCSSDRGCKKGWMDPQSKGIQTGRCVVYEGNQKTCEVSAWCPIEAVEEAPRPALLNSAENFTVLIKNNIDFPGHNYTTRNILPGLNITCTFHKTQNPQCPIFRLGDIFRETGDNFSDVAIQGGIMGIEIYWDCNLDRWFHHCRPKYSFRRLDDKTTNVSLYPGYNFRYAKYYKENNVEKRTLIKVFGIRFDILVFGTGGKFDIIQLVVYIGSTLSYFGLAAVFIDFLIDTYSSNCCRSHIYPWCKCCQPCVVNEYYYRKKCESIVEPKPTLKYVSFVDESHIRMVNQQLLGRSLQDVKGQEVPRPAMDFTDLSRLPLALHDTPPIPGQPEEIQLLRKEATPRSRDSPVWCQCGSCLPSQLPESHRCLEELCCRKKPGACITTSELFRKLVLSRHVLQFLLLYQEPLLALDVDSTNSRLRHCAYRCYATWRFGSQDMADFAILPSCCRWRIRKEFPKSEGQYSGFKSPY
Nature of the experiment: Ethidium Accumulation Assay. The experiment is classed as cell-based. The conditions noted are these: HEK293 cells stably expressing human recombinant P2X7 receptors; 1 mM ATP; values given as 'about'; read-out: pIC50 for human P2X7 receptor antagonist activity (blocking ATP responses) in the Ethidium Accumulation Assay (converted). On the procedure:
Studies were performed using NaCl assay buffer of the following composition: 140 mM NaCl, 10 mM HEPES [4-(2-hydroxyethyl)-1-piperazine-1-ethanesulfonic acid], 5 mM N-methyl-D-glucamine, 5.6 mM KCl, 10 mM D-glucose, 0.5 mM CaCl2 (pH 7.4).
Human Embryonic Kidney (HEK) 293 cells, stably expressing human recombinant P2X7 receptors, were grown in poly-D-lysine pre-treated 96 well plates for 18-24 hours. […] The cells were washed twice with 350 μl of the assay buffer, before addition of 50 μl of the assay buffer containing the putative P2X7 receptor antagonist compound. (A small amount of dimethyl sulfoxide, for initially dissolving the compound, is optionally used and present in this 50 μl test compound sample.) The cells were then incubated at room temperature (19-21° C.) for 30 min before addition of ATP and ethidium (100 μM final assay concentration). The ATP concentration was chosen to be close to the EC80 for the receptor type and was 1 mM for studies on the human P2X7 receptor. Incubations were continued for 8 or 16 min and were terminated by addition of 25 μl of 1.3M sucrose containing 4 mM of the P2X7 receptor antagonist Reactive Black 5 (Aldrich). […] Antagonist pIC50 values for blocking ATP responses were determined using iterative curve fitting techniques.
With `Cc1c(N2CCCC2)cccc1N1CCN(C(=O)c2cccc(C(F)(F)F)c2Cl)CC1=O` [Example 75, 4-{[2-chloro-3-(trifluoromethyl)phenyl]carbonyl}-1-[2-methyl-3-(1-pyrrolidinyl)phenyl]-2-piperazinone], the IC50 is 2.51 to 100 nM.
The result for `O=C(c1cccc(C(F)(F)F)c1Cl)N1CCN(c2ccc(F)cc2F)C(=O)C1` [Example 21, 4-{[2-chloro-3-(trifluoromethyl)phenyl]carbonyl}-1-(2,4-difluorophenyl)-2-piperazinone] reads 2.51 to 100 nM; that for `Cc1c(N2CCOCC2)cccc1N1CCN(C(=O)c2c(Cl)cc(Cl)cc2Cl)CC1=O` [Example 82, 1-[2-methyl-3-(4-morpholinyl)phenyl]-4-[(2,4,6-trichlorophenyl)carbonyl]-2-piperazinone], 2.51 to 100 nM; that for `O=C(c1cccc(C(F)(F)F)c1Cl)N1CCN(c2cc(N3CCOCC3)ccc2Cl)C(=O)C1` [Example 78, 1-[2-chloro-5-(4-morpholinyl)phenyl]-4-{[2-chloro-3-(trifluoromethyl)phenyl]-carbonyl}-2-piperazinone], 2.51 to 100 nM.
The result for `O=C(c1cccc(C(F)(F)F)c1Cl)N1CCN(c2cccc3ccccc23)C(=O)C1` [Example 24, 4-{[2-chloro-3-(trifluoromethyl)phenyl]carbonyl}-1-(1-naphthalenyl)-2-piperazinone] reads 2.51 to 100 nM; that for `O=C(c1cccc(C(F)(F)F)c1Cl)N1CCN(c2ccc(F)cc2Cl)C(=O)C1` [Example 10, 1-(2-Chloro-4-fluorophenyl)-4-{[2-chloro-3-(trifluoromethyl)phenyl]carbonyl}-2-piperazinone], 5.01 to 200 nM.
Consider `N#Cc1cc(F)ccc1N1CCN(C(=O)c2cccc(C(F)(F)F)c2Cl)CC1=O` [Example 50, 2-(4-{[2-chloro-3-(trifluoromethyl)phenyl]carbonyl}-2-oxo-1-piperazinyl)-5-fluorobenzonitrile], for which the IC50 is 2.51 to 100 nM.
On to `Cc1ccc(N2CCOCC2)cc1N1CCN(C(=O)c2cccc(C(F)(F)F)c2Cl)CC1=O` [Example 55, 4-{[2-chloro-3-(trifluoromethyl)phenyl]carbonyl}-1-[2-methyl-5-(4-morpholinyl)phenyl]-2-piperazinone], for which the IC50 was 2.51 to 100 nM.
The result for `O=C(c1cccc(Cl)c1Cl)N1CCN(c2cccc(Cl)c2)C(=O)C1` [Example 14, 1-(3-Chlorophenyl)-4-[(2,3-dichlorophenyl)carbonyl]-2-piperazinone] reads 5.01 to 200 nM; that for `O=C(c1ccc(F)cc1Cl)N1CCN(c2cccc3ccccc23)C(=O)C1` [Example 23, 4-[(2-chloro-4-fluorophenyl)carbonyl]-1-(1-naphthalenyl)-2-piperazinone], 2.51 to 100 nM.
The result for `CC(C)Oc1cc(F)ccc1N1CCN(C(=O)c2cccc(C(F)(F)F)c2Cl)CC1=O` [Example 57, 4-{[2-chloro-3-(trifluoromethyl)phenyl]carbonyl}-1-{4-fluoro-2-[(1-methylethyl)oxy]phenyl}-2-piperazinone] reads 2.51 to 100 nM; that for `O=C(c1cccc(C(F)(F)F)c1Cl)N1CCN(c2cccc(N3CCOCC3)c2Cl)C(=O)C1` [Example 79, 1-[2-chloro-3-(4-morpholinyl)phenyl]-4-{[2-chloro-3-(trifluoromethyl)phenyl]carbonyl}-2-piperazinone], 2.51 to 100 nM.
Regarding `CCCN1CCN(C(=O)c2cccc(C(F)(F)F)c2Cl)CC1=O` [Example 49, 4-{[2-chloro-3-(trifluoromethyl)phenyl]carbonyl}-1-propyl-2-piperazinone], the IC50 was 2.51 to 100 nM.
As to `O=C(c1cccc(Cl)c1Cl)N1CCN(c2ccccc2Cl)C(=O)C1` [Example 6, 1-(2-Dichlorophenyl)-4-[(2,3-dichlorophenyl)carbonyl]-2-piperazinone], the IC50 is 5.01 to 200 nM.
Take `Cc1ccc(-c2cccc(N3CCN(C(=O)c4cccc(C(F)(F)F)c4Cl)CC3=O)c2C)cn1` [Example 84, 4-{[2-chloro-3-(trifluoromethyl)phenyl]carbonyl}-1-[2-methyl-3-(6-methyl-3-pyridinyl)phenyl]-2-piperazinone]: the IC50 was 2.51 to 100 nM.
Regarding `O=C(c1cccc(C(F)(F)F)c1Cl)N1CCN(c2ccc(F)cc2)C(=O)C1` [Example 12, 4-{[2-Chloro-3-(trifluoromethyl)phenyl]carbonyl}-1-(4-fluorophenyl)-2-piperazinone], the IC50 is 5.01 to 200 nM.
The result for `O=C(c1cccc(Cl)c1Cl)N1CCN(c2ccc(F)cc2F)C(=O)C1` [Example 19, 4-[(2,3-Dichlorophenyl)carbonyl]-1-(2,4-difluorophenyl)-2-piperazinone] reads 5.01 to 200 nM.
The value for `O=C1CN(C(=O)c2cccc(C(F)(F)F)c2Cl)CCN1CC1CC1` [Example 48, 4-{[2-chloro-3-(trifluoromethyl)phenyl]carbonyl}-1-(cyclopropylmethyl)-2-piperazinone] was 2.51 to 100 nM; that for `COc1ccc(I)cc1N1CCN(C(=O)c2cccc(C(F)(F)F)c2Cl)CC1=O` [Example 64, 4-{[2-chloro-3-(trifluoromethyl)phenyl]carbonyl}-1-[5-iodo-2-(methyloxy)phenyl]-2-piperazinone] was 2.51 to 100 nM.
In the case of `Cc1c(Br)cccc1N1CCN(C(=O)c2cccc(C(F)(F)F)c2Cl)CC1=O` [Example 46, 1-(3-bromo-2-methylphenyl)-4-{[2-chloro-3-(trifluoromethyl)phenyl]carbonyl}-2-piperazinone], the IC50 is 2.51 to 100 nM.
Take `Cc1c(N2CCOCC2)cccc1N1CCN(C(=O)c2cccc(Cl)c2Cl)CC1=O` [Example 80, 4-[(2,3-dichlorophenyl)carbonyl]-1-[2-methyl-3-(4-morpholinyl)phenyl]-2-piperazinone]: the IC50 was 2.51 to 100 nM.
The result for `CC(C)CN1CCN(C(=O)c2cccc(Cl)c2Cl)CC1=O` [Example 39, 4-[(2,3-dichlorophenyl)carbonyl]-1-(2-methylpropyl)-2-piperazinone] reads 2.51 to 100 nM.
The value for `Cc1ccccc1N1CCN(C(=O)c2ccc(Cl)cc2Cl)CC1=O` [Example 2, 4-[(2,4-Dichlorophenyl)carbonyl]-1-(2-methylphenyl)-2-piperazinone] was 5.01 to 200 nM.
The value for `Cc1ccc(N2CCCC2)cc1N1CCN(C(=O)c2cccc(C(F)(F)F)c2Cl)CC1=O` [Example 73, 4-{[2-chloro-3-(trifluoromethyl)phenyl]carbonyl}-1-[2-methyl-5-(1-pyrrolidinyl)phenyl]-2-piperazinone] was 2.51 to 100 nM; that for `O=C(c1cccc(Cl)c1Cl)N1CCN(c2cccc3ccccc23)C(=O)C1` [Example 22, 4-[(2,3-dichlorophenyl)carbonyl]-1-(1-naphthalenyl)-2-piperazinone] was 2.51 to 100 nM; that for `Cc1ccc(-c2ccc(C)c(N3CCN(C(=O)c4cccc(C(F)(F)F)c4Cl)CC3=O)c2)cn1` [Example 74, 4-{[2-chloro-3-(trifluoromethyl)phenyl]carbonyl}-1-[2-methyl-5-(6-methyl-3-pyridinyl)phenyl]-2-piperazinone hydrochloride] was 2.51 to 100 nM.
On to `O=C(c1ccc(F)cc1Cl)N1CCN(c2ccccc2Cl)C(=O)C1` [Example 5, 4-[(2-Chloro-4-fluorophenyl)carbonyl]-1-(2-chlorophenyl)-2-piperazinone], for which the IC50 is 5.01 to 200 nM.
As for `Cc1c(N2CCOCC2)cccc1N1CCN(C(=O)c2cccc(C(F)(F)F)c2Cl)CC1=O` [Example 81, 4-{[2-chloro-3-(trifluoromethyl)phenyl]carbonyl}-1-[2-methyl-3-(4-morpholinyl)phenyl]-2-piperazinone], the IC50 is 2.51 to 100 nM.
The result for `O=C(c1cccc(C(F)(F)F)c1Cl)N1CCN(c2ccccc2Cl)C(=O)C1` [Example 9, 1-(2-Chlorophenyl)-4-{[2-chloro-3-(trifluoromethyl)phenyl]carbonyl}-2-piperazinone] reads 5.01 to 200 nM; that for `O=C(c1cccc(Cl)c1Cl)N1CCN(c2ccc(F)cc2)C(=O)C1` [Example 13, 4-[(2,3-Dichlorophenyl)carbonyl]-1-(4-fluorophenyl)-2-piperazinone], 5.01 to 200 nM.
On to `N#Cc1cc(F)ccc1N1CCN(C(=O)c2cccc(Cl)c2Cl)CC1=O` [Example 38, 2-{-4-[(2,3-dichlorophenyl)carbonyl]-2-oxo-1-piperazinyl}-5-fluorobenzonitrile], for which the IC50 was 2.51 to 100 nM.
For `CC(C)N1CCN(C(=O)c2cccc(Cl)c2Cl)CC1=O` [Example 18, 4-[(2,3-Dichlorophenyl)carbonyl]-1-(1-methylethyl)-2-piperazinone], the IC50 was 5.01 to 200 nM.
